The values below come from patent US4179508A, “Sulfur-containing derivatives of 4,4-dimethyl-2H,4H-isoquinoline-1,3-dione, and anticonvulsant and antihyperlipidemic compositions thereof” (Boehringer Ingelheim GmbH, priority 1977, dated 1979).

Common to all, as to format: in vivo
The test system of data set [1] is hind limb tonic extensor component of the maximal seizure pattern. The experiment in a line: Anticonvulsive activity in mice, maximal electroshock seizure pattern method. Particulars: Mus musculus, male mice, oral, maximal electroshock 50 mA, 0.2 sec. Here is the method: (§1) The anticonvulsive activity and toxicity of the compounds of this invention were ascertained by the methods described below, and tables I and II show the results of these tests for a few representative species of the genus, where
Male mice with body weights of between 20 and 26 gm were used as the test animals. They were allowed free access to food and water up to one hour before administration of the test compound. The tests were carried out by using the maximal electroshock seizure pattern method [SWINYARD et, J. Pharmacol. exp. Ther. 106, 319 (1952)].
The electroshock apparatus was constructed according to WOODBURY and DAVENPORT [Arch. int. Pharmacodyn. 99, 97 (1952)]. The electric impulses (50 Hz A.C., 50 mA, 0.2 sec.) were delivered via steel ball electrodes covered with buckskin and moistened with an aqueous 0.9% sodium chloride solution to the heads by way of the eyes of the mice. The test is a measure of the ability of an anticonvulsant drug to abolish the hind limb tonic extensor component of the maximal seizure pattern induced by electric stimulation. The test compound was suspended in 1% of tylose and administered orally in a volume of 0.1 ml per 10 gm of mouse, and each dosage was administered to a group of 10 animals. Control groups received the suspension agent orally. 30, 150 and 300 minutes after administration all animals were shocked. ED50 values were determined by the graphic statistical method of LITCHFIELD and WILCOXON [J. Pharmacol. exp. Therap. 96, 99 (1949)] as a measure of the ability of the test compounds to abolish the hindlimb tonic extensor compound of the maximal seizure pattern in 50 percent of the animals.
For orientation: Protection in the maximal electroshock model is a classic sign of anticonvulsant action.

A further data set in a line: Acute toxicity. Particulars: mouse, in vivo, po; mice, p.o., groups of 10, observation time 4 days. Here is the method:
as §1
(§2) The acute toxicity of the compounds was determined after administration of various dosages to groups of 10 mice with body weights of between 20 and 26 gm (observation time: 4 days).

A further data set relates to mice. The experiment in a line: Acute toxicity. Particulars: 500 mgm/kg p.o., observation time 4 days. The method, then:
as §1, §2

[2] abbreviates: 0.5 h, shocked 30 minutes after administration, read-out: ED50, 30 minutes.
[3] abbreviates: 2.5 h, shocked 150 minutes after administration, read-out: ED50, 150 minutes.
[4] abbreviates: 5 h, shocked 300 minutes after administration, read-out: ED50, 300 minutes.

Read-outs that look alike come from different tables or passages of the source.

With `C[S+]([O-])CCN1C(=O)c2ccccc2C(C)(C)C1=O` (stereo not drawn) [B, 4,4-Dimethyl-2-(2-methylsulfinyl-ethyl)-2H,4H-isoqionoline-1,3-dione], the ED50 in data set [1] (setting [2]) is 14.5 mg/kg; in data set [1] (setting [3]), 16.8 mg/kg; in data set [1] (setting [4]), 25 mg/kg. Also, the LD50 at 96 h in the data set “Acute toxicity” was roughly 500 mg/kg. For the same molecule, the animals died with mice is reported as 4 of 10.
In the case of `CC1(C)C(=O)N(CCS(C)(=O)=O)C(=O)c2ccccc21` [C, 4,4-Dimethyl-2-(2-methylsulfonyl-ethyl)-2H,4H-isoquinoline-1,3-dione], the values for the ED50 in data set [1] (setting [2]), in data set [1] (setting [3]) and in data set [1] (setting [4]) were 26.3 mg/kg, 35.2 mg/kg and 32.5 mg/kg, respectively. This molecule also returned an LD50 at 96 h in the data set “Acute toxicity” greater than 500 mg/kg. The animals died in the data set on mice was 1 of 10.
On to `CSCCN1C(=O)c2ccccc2C(C)(C)C1=O` [Compound A, 4,4-Dimethyl-2-(2-methylmercapto-ethyl)-2H,4H-isoquinoline-1,3-dione], for which the ED50 came out at 17.3 mg/kg in data set [1] (setting [2]), 22.8 mg/kg in data set [1] (setting [3]) and 27.8 mg/kg in data set [1] (setting [4]). The LD50 at 96 h in the data set “Acute toxicity” is greater than 500 mg/kg. The animals died with mice is 0 of 10.
In the case of `CSCN1C(=O)c2ccccc2C(C)(C)C1=O` [D, 4,4-Dimethyl-2-(methylmercapto-methyl)-2H,4H-isoquinoline-1,3-dione], the ED50 in data set [1] (setting [2]) is 28 mg/kg; in data set [1] (setting [3]), 16.2 mg/kg; in data set [1] (setting [4]), 19.8 mg/kg.
For the molecule `C[S+]([O-])CN1C(=O)c2ccccc2C(C)(C)C1=O` (stereo not drawn) [E, 4,4-Dimethyl-2-(methylsulfinyl-methyl)-2H,4H-isoquinoline-1,3-dione], the ED50 in data set [1] (setting [2]) was 8.3 mg/kg; in data set [1] (setting [3]) it was 10.5 mg/kg; in data set [1] (setting [4]), 11.5 mg/kg.

As usually defined, the ED50 is the dose at which the effect has come halfway, by size or by number of responders. The term LD50 denotes the dose expected to kill half of the subjects tested. Read a low LD50 as a more toxic substance.
